# Measurements published in patent US20230265116A1, “DEGRADATION OF (EGFR) BY CONJUGATION OF EGFR INHIBITORS WITH E3 LIGASE LIGAND AND METHODS OF USE” (BEIGENE, LTD., priority 2020, published 2023).
# Tests used:
# [1] = test system: EGFR Del19/T790M/C797S (BaF3-DTC cells); test: EGFR degradation HTRF assay, BaF3-DTC cells; format: cell-based; settings: 16h treatment; for DTC Dmax (%): maximum percentage of degradation; for DC50: read-out: DTC DC50
# Description: BaF3 WT(wild type), BaF3-LTC(L858R/T790M/C797S) and BaF3-DTC(Del19/T790M/C797S) cells are treated with compounds diluted in 0.2% DMSO cell culture medium and incubate for 16h, 37° C., 5% CO2, H1975-#36, H1975-#28, H1975-#23 and HCC827 cells are treated with compounds diluted in 0.2% DMSO cell culture medium on day 2, incubate for 16h, 37° C., 5% CO2.the final concentriation of compounds in all assay is start with 10 uM, 5-fold dilution, total 8 doses were included.
# After 16h treatment, add HTRF lysis buffer to each well; seal the plate and incubate 1 hour at room temperature on a plate shaker; Once the cells are lysed, 16 μL of cell lysate are transferred to a PE 384-well HTRF detection plate; 4 μL of pre-mixed HTRF antibodies are added to each well; Cover the plate with a plate sealer, spin 1000 rpm for 1 min, Incubate overnight at room temperature; Read on BMG PheraStar with HTRF protocol (337 nm-665 nm-620 nm).
# The inhibition (degradation) percentage of the compound was calculated by the following equation: Inhibition percentage of Compound=100-100×(Signal-low control)/(High control-low control), wherein signal=each test compound group
# High control=Cell group with added DMSO and without compound, indicating microplate readings without EGFR degradation;
# Dmax is the maximum percentage of inhibition (degradation).
# The IC50 (DC50) value of a compound can be obtained by fitting the following equation
# Y=Bottom+(TOP−Bottom)/(1+((IC50/X)^hillslope))
# Wherein, X and Y are known values, and IC50, Hillslope, Top and Bottom are the parameters obtained by fitting with software. Y is the inhibition percentage (calculated from the equation), X is the concentration of the compound; IC50 is the concentration of the compound when the 50% inhibition is reached. The smaller the IC50 value is, the stronger the inhibitory ability of the compound is. Vice versa, the higher the IC50 value is, the weaker the inhibitory ability of the compound is; Hillslope represents the slope of the fitted curve, generally around 1*; Bottom represents the minimum value of the curve obtained by data fitting, which is generally 0%±20%; Top represents the maximum value of the curve obtained by data fitting, which is generally 100%±20%. The experimental data were fitted by calculating and analyzing with Dotmatics data analysis software.
# [2] = target: T1, EGFR L858R/T790M/C797S (BaF3-LTC cells) (Homo sapiens, UniProt P00533, C797S/L858R/T790M); test: EGFR degradation HTRF assay, BaF3-LTC cells; format: cell-based; settings: BaF3-LTC, 16h treatment; for Dmax: maximum percentage of degradation, read-out: LTC Dmax (%); for DC50: read-out: LTC DC50
# T1 construct: expressed in transfected cells; host or cells: BaF3
# T1 sequence (P00533 25-1210 T790M/C797S/L858R): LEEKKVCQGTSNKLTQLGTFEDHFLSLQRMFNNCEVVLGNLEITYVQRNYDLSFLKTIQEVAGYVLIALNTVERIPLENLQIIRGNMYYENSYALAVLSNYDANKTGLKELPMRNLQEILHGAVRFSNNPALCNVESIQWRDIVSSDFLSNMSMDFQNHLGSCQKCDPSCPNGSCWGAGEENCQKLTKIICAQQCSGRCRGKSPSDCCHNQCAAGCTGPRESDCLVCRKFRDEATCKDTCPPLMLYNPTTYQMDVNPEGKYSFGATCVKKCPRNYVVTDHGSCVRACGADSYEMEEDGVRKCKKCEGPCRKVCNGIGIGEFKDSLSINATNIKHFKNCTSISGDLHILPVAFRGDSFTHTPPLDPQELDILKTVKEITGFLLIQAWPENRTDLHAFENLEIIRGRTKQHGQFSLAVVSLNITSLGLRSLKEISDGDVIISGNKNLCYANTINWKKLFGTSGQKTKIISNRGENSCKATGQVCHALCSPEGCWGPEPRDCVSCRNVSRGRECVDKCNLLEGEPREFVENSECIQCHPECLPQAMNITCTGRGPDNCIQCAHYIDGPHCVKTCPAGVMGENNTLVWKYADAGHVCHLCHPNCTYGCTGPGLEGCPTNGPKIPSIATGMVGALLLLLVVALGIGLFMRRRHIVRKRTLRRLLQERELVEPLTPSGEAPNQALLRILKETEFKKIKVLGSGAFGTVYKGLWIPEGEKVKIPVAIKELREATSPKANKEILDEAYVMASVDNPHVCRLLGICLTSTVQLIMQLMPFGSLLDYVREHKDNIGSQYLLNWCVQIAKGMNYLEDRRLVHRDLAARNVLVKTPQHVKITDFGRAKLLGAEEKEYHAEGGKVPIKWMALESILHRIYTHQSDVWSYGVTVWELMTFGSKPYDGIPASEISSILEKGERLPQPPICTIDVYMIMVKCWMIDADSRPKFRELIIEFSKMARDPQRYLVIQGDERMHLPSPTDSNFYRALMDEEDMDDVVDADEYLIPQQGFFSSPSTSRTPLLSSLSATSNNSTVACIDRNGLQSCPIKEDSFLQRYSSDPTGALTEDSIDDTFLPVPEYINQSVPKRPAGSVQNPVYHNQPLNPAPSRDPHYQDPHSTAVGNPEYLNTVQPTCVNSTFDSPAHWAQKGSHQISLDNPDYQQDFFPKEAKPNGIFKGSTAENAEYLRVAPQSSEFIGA
# Procedure, shortened: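 Cells treated 16 h at 37 °C, 5% CO2 in medium with 0.2% DMSO; top final concentration 10 uM, 5-fold dilution, 8 doses. Lysates read by HTRF (665/620 nm); degradation % versus DMSO high control, DC50 from four-parameter fit, Dmax as maximal degradation.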
Structure (SMILES),DTC Dmax (%) [1] [%],DC50 [1] [nM],Dmax [2] [%],DC50 [2] [nM]
"CCc1cc(Nc2ncc(Br)c(Nc3ccc4nccnc4c3P(C)(C)=O)n2)c(OC)cc1N1CCC(N2CCN(C[C@H]3CCN(c4ccc5c(c4)CN(C4CCC(=O)NC4=O)C5=O)C3)CC2)CC1 (stereo partly drawn) [Example 237, 3-(5-((R)-3-((4-(1-(4-((5-bromo-4-((5-(dimethylphosphoryl)quinoxalin-6-yl)amino)pyrimidin-2-yl)amino)-2-ethyl-5-methoxyphenyl)piperidin-4-yl)piperazin-1-yl)methyl)pyrrolidin-1-yl)-1-oxoisoindolin-2-yl)piperidine-2,6-dione]",92.67,6.15,92.5,9.47
"CCc1cc(Nc2ncc(Br)c(Nc3ccc4nccnc4c3P(C)(C)=O)n2)c(OC)cc1N1CCC(N2CCN(CCc3ccc(C4CCC(=O)NC4=O)cc3F)CC2)CC1 (stereo not shown) [Example 6, 3-(4-(2-(4-(1-(4-((5-bromo-4-((5-(dimethylphosphoryl)quinoxalin-6-yl)amino)pyrimidin-2-yl)amino)-2-ethyl-5-methoxyphenyl)piperidin-4-yl)piperazin-1-yl)ethyl)-3-fluorophenyl)piperidine-2,6-dione]",81.2,9.2,82.2,102
"CCc1cc(Nc2ncc(Br)c(Nc3ccc4nc(C(F)(F)F)ccc4c3P(C)(C)=O)n2)c(OC)cc1N1CCC(N2CCN(C(=O)C3CN(c4ccc5c(c4)CN(C4CCC(=O)NC4=O)C5=O)C3)CC2)CC1 (stereo not shown) [Example 434, 3-(5-(3-(4-(1-(4-((5-bromo-4-((5-(dimethylphosphoryl)-2-(trifluoromethyl)quinolin-6-yl)amino)pyrimidin-2-yl)amino)-2-ethyl-5-methoxyphenyl)piperidin-4-yl)piperazine-1-carbonyl)azetidin-1-yl)-1-oxoisoindolin-2-yl)piperidine-2,6-dione]",85.05,4.43,88.2,9.32
"CCc1cc(Nc2ncc(Br)c(Nc3ccc4scnc4c3P(C)(C)=O)n2)c(OC)cc1N1CCC(N2CCN(CCc3cc(F)c(C4CCC(=O)NC4=O)c(F)c3)CC2)CC1 (stereo not shown) [Example 206, 3-(4-(2-(4-(1-(4-((5-bromo-4-((4-(dimethylphosphoryl)benzo[d]thiazol-5-yl)amino)pyrimidin-2-yl)amino)-2-ethyl-5-methoxyphenyl)piperidin-4-yl)piperazin-1-yl)ethyl)-2,6-difluorophenyl)piperidine-2,6-dione]",94.22,9.26,92.1,20.9
"COc1cc(N2CCC(N3CCN(CCC4CCN(c5cc(F)c(C6CCC(=O)NC6=O)c(F)c5)CC4)CC3=O)CC2)c(C)cc1Nc1ncc(Br)c(Nc2ccc3nccnc3c2P(C)(C)=O)n1 (stereo not shown) [Example 216, 3-(4-(4-(2-(4-(1-(4-((5-bromo-4-((5-(dimethylphosphoryl)quinoxalin-6-yl)amino)pyrimidin-2-yl)amino)-5-methoxy-2-methylphenyl)piperidin-4-yl)-3-oxopiperazin-1-yl)ethyl)piperidin-1-yl)-2,6-difluorophenyl)piperidine-2,6-dione]",93.59,5.56,87.7,23.3
"CCc1cc(Nc2ncc(C(C)=O)c(Nc3ccc4nccnc4c3P(C)(C)=O)n2)c(OC)cc1N1CCC(N2CCN(CCC3CCN(c4cc(F)c(C5CCC(=O)NC5=O)c(F)c4)CC3)CC2)CC1 (stereo not shown) [Example 703, 3-(4-(4-(2-(4-(1-(4-((5-acetyl-4-((5-(dimethylphosphoryl)quinoxalin-6-yl)amino)pyrimidin-2-yl)amino)-2-ethyl-5-methoxyphenyl)piperidin-4-yl)piperazin-1-yl)ethyl)piperidin-1-yl)-2,6-difluorophenyl)piperidine-2,6-dione]",93.35,6.81,87.8,20
"CCc1cc(Nc2ncc(Br)c(Nc3ccc4nccnc4c3P(C)(C)=O)n2)c(OC)cc1N1CCC(N2CCN(C[C@@H]3CCN(c4ccc5c(c4)C(=O)N(C4CCC(=O)NC4=O)C5=O)C3)CC2)CC1 (stereo partly drawn) [Example 235, 5-((S)-3-((4-(1-(4-((5-bromo-4-((5-(dimethylphosphoryl)quinoxalin-6-yl)amino)pyrimidin-2-yl)amino)-2-ethyl-5-methoxyphenyl)piperidin-4-yl)piperazin-1-yl)methyl)pyrrolidin-1-yl)-2-(2,6-dioxopiperidin-3-yl)isoindoline-1,3-dione]",81.09,17.5,78,30.1
"CCc1cc(Nc2ncc(Br)c(Nc3ccc4nccnc4c3P(C)(C)=O)n2)c(OC)cc1N1CCC(N2CCN(CC3CN(c4cc(F)c(C5CCC(=O)NC5=O)c(F)c4)C3)CC2)CC1 (stereo not shown) [Example 253, 3-(4-(3-((4-(1-(4-((5-bromo-4-((5-(dimethylphosphoryl)quinoxalin-6-yl)amino)pyrimidin-2-yl)amino)-2-ethyl-5-methoxyphenyl)piperidin-4-yl)piperazin-1-yl)methyl)azetidin-1-yl)-2,6-difluorophenyl)piperidine-2,6-dione]",94.79,7.09,86.3,19.8
"CCc1cc(Nc2ncc(Br)c(Nc3ccc4nc(C)c(C)cc4c3P(C)(C)=O)n2)c(OC)cc1N1CCC(N2CCN(CCc3cc(F)c(C4CCC(=O)NC4=O)c(F)c3)CC2)CC1 (stereo not shown) [Example 707, 3-(4-(2-(4-(1-(4-((5-bromo-4-((5-(dimethylphosphoryl)-2,3-dimethylquinolin-6-yl)amino)pyrimidin-2-yl)amino)-2-ethyl-5-methoxyphenyl)piperidin-4-yl)piperazin-1-yl)ethyl)-2,6-difluorophenyl)piperidine-2,6-dione]",82.86,3.29,92.1,5.79
"CCc1cc(Nc2ncc(Br)c(Nc3ccc4nccnc4c3P(C)(C)=O)n2)c(OC)cc1N1CCC(N2CCN(C3CC4(CCN(c5ccc(C6CCC(=O)NC6=O)cc5)CC4)C3)CC2)CC1 (stereo not shown) [Example 311, 3-(4-(2-(4-(1-(4-((5-bromo-4-((5-(dimethylphosphoryl)quinoxalin-6-yl)amino)pyrimidin-2-yl)amino)-2-ethyl-5-methoxyphenyl)piperidin-4-yl)piperazin-1-yl)-7-azaspiro[3.5]nonan-7-yl)phenyl)piperidine-2,6-dione]",77.19,31.8,76.3,78.2
"CCc1cc(Nc2ncc(Br)c(Nc3ccc4nc(C(C)C)ccc4c3P(C)(C)=O)n2)c(OC)cc1N1CCC(N2CCN(CCC3CCN(c4cc(F)c(C5CCC(=O)NC5=O)c(F)c4)CC3)CC2)CC1 (stereo not shown) [Example 313, 3-(4-(4-(2-(4-(1-(4-((5-bromo-4-((5-(dimethylphosphoryl)-2-isopropylquinolin-6-yl)amino)pyrimidin-2-yl)amino)-2-ethyl-5-methoxyphenyl)piperidin-4-yl)piperazin-1-yl)ethyl)piperidin-1-yl)-2,6-difluorophenyl)piperidine-2,6-dione]",90.8,28.6,87.5,53.7
"CCc1cc(Nc2ncc(Br)c(Nc3ccc4nccnc4c3P(C)(C)=O)n2)c(OC)cc1N1CCC(N2CCN(C(=O)[C@@H]3CCN(c4ccc(C5CCC(=O)NC5=O)cc4)C3)CC2)CC1 (stereo partly drawn) [Example 224, 3-(4-((R)-3-(4-(1-(4-((5-bromo-4-((5-(dimethylphosphoryl)quinoxalin-6-yl)amino)pyrimidin-2-yl)amino)-2-ethyl-5-methoxyphenyl)piperidin-4-yl)piperazine-1-carbonyl)pyrrolidin-1-yl)phenyl)piperidine-2,6-dione]",87.47,8.41,81.5,37.2
"CCc1cc(Nc2ncc(Br)c(Nc3ccc4nccnc4c3P(C)(C)=O)n2)c(OC)cc1N1CCC(N2CCN(CCCc3cc(F)c(C4CCC(=O)NC4=O)c(F)c3)CC2)CC1 (stereo not shown) [Example 205, 3-(4-(3-(4-(1-(4-((5-bromo-4-((5-(dimethylphosphoryl)quinoxalin-6-yl)amino)pyrimidin-2-yl)amino)-2-ethyl-5-methoxyphenyl)piperidin-4-yl)piperazin-1-yl)propyl)-2,6-difluorophenyl)piperidine-2,6-dione]",90.39,6.63,87.7,32.5
